Several values for one entry are separate records, joined by “and”; a condition that tells them apart may be missing. Equal entries are not always repeated.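 Results reflect a 48-hour exposure of cells in 96-well plates to compound at five concentrations. Abbreviation: GI50, concentration required for 50% inhibition of growth. TGI denotes the concentration required for complete inhibition of growth.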

Some test systems named below: U251 CNS; HOP-62 NSCLC; SW-620 colon; OVCAR-3 ovarian; MCF7 breast; DMS 273 small cell lung; KM12 colon; DU-145 prostate; SR leukemia; ACHN renal.
Common to all, as to assay: NCI anticancer screen, dose series, 48 h

With `C=C1C(=O)OC2C1CC1OC2C(C)CCC/C(C)=C\CCC1(C)O` (centres undefined), the TGI in the assay on U251 CNS was above 91.1 µM; in the assay with HOP-62 NSCLC, above 65.9 µM; with SW-620 colon, 32.6 µM; with OVCAR-3 ovarian, 32.6 µM; in the assay with MCF7 breast, 57.4 µM; in the assay with DMS 273 small cell lung, 53.1 µM. In the assay with KM12 colon, this compound came in with a TGI of 59 µM.
As to `Nc1ncnc2c(C3OC(CO)C(O)C3O)c[nH]c12` (centres undefined), the GI50 with HOP-62 NSCLC is 0.0136 µM; with OVCAR-3 ovarian, 0.0116 µM. The TGI with HOP-62 NSCLC is 0.342 µM and 0.0897 µM; with DU-145 prostate it was 0.113 µM; in the assay with OVCAR-3 ovarian, 0.0342 µM and 0.124 µM; in the assay on MCF7 breast it was 0.0807 µM; with DMS 273 small cell lung, 0.116 µM; in the assay on SR leukemia, 0.272 µM. Moreover, the TGI in the assay on KM12 colon is 0.396 µM and 0.465 µM.
`COc1cccc2c1C(=O)c1c(O)c3c(c(O)c1C2=O)C[C@](O)(C(=O)CO)CC3OC1CC(N)C(OC2CCCCO2)C(C)O1` (some centres undefined): the TGI stood at 0.899 µM with U251 CNS; 1.7 µM in the assay with HOP-62 NSCLC; 6.48 µM in the assay on SW-620 colon; 4.56 µM with OVCAR-3 ovarian; 12.1 µM in the assay with MCF7 breast; 1.22 µM with DMS 273 small cell lung.
For the compound `O=c1c2cc(Cl)ccc2n2nnc3ccc(NCCNCCO)c1c32`, the TGI was determined as 1.94 µM in the assay with U251 CNS; 3.03 µM in the assay on HOP-62 NSCLC; 2.51 µM in the assay with SW-620 colon; 8.91 µM in the assay with DU-145 prostate; 4.16 µM in the assay on OVCAR-3 ovarian; 9.46 µM in the assay on MCF7 breast. In addition, the TGI came out at 2.43 µM in the assay on ACHN renal, 2.45 µM in the assay on DMS 273 small cell lung and 3.48 µM with KM12 colon.
Regarding `O=C1/C(=C/c2ccc(Cl)c(Cl)c2)CN(C(=O)CCN2CCOCC2)C/C1=C\c1ccc(Cl)c(Cl)c1`, the GI50 is 1.39 µM and 0.229 µM and 0.249 µM in the assay with SW-620 colon; 1.08 µM in the assay with OVCAR-3 ovarian; 0.23 µM in the assay on DMS 273 small cell lung. Moreover, the TGI was 3.32 µM and 0.563 µM and 0.746 µM with SW-620 colon; 0.148 µM in the assay on DU-145 prostate; 0.159 µM in the assay on MCF7 breast; 2.37 µM and 0.608 µM in the assay on DMS 273 small cell lung; 0.137 µM and 1.27 µM and 0.326 µM in the assay on KM12 colon.

Values taken from PubChem BioAssay (NCI).
